Measurements reported in patent US5260197A, “L-fucose dehydrogenase, a process for production thereof, quantitative assay for L-fucose using said enzyme and a kit for quantitative assay” (Noda Institute for Scientific Research, priority 1988, dated 1993).
Like-named read-outs stand apart in the source and are kept apart here. Blank lines part the entries; values can stand above or below the molecule they belong to.

Assays:
[1] = biological target: T1, L-fucose dehydrogenase (L-FDH) (Pseudomonas sp, UniProt Q52472); type: biochemical; details: for Residual Activity (%): inhibitor or metal salt 2 mM in reaction solution, None = 100
T1 construct: L-FDH was accumulated in the cell portion; made in house; host or cells: Pseudomonas sp; No. 1143 (FERM BP-2056), the natural producing strain isolated from soil; enzyme purified from its cells, not recombinant
T1 sequence (Q52472 1-329): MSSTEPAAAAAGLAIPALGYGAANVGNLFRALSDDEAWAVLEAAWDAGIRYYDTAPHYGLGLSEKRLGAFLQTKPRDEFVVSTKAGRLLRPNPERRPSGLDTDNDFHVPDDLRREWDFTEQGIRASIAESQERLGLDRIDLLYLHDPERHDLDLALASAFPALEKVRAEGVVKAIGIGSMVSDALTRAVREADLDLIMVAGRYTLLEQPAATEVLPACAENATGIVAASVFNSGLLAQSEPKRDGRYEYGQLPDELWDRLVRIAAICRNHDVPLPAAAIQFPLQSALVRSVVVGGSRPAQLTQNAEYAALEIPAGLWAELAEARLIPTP
Method: (§1) To 2.5 ml of Tris-imidazole-sodium acetate buffer solution (solution containing 0.12 M each is adjusted to pH of 9.5 with 4 N NaOH) is added 0.2 ml of 15 mM NADP^+ solution After keeping at 37° C. for 5 minutes, 0.1 ml of an enzyme solution is added and 0.2 ml of 150 mM L-fucose solution is further added to the system to initiate the reaction. Immediately thereafter, the reaction mixture is transferred to a cell for measurement of absorbance (1 cm light path) kept at 37° C. and absorbance is measured at the wavelength of 340 nm for 2 minutes or, if necessary, over a longer time period. One unit is an amount of enzyme that produces 1 μmole of NADPH for one minute.

[2] = biological target: T1, L-fucose dehydrogenase (L-FDH); assay: L-FDH substrate and coenzyme specificity (determination of activity, NADPH at 340 nm); type: biochemical, Pseudomonas sp. No. 1143; details: for specificity of the enzyme to substrate sugar (relative activity): L-fucose = 100%, NADP+ as coenzyme; for coenzyme requirement (relative activity): NADP+ = 100%, L-fucose as substrate
Method: As shown in the following reaction equation, the enzyme oxidizes L-fucose to L-fuconolactone in the presence of L-fucose and NADP+ and at the same time reduces NADP^+ to NADPH.
Furthermore, the enzyme requires NADP^+ (100%) as coenzyme but reacts very little with NAD^+ (1%).
as §1

[3] = Polyacrylamide gel isoelectrofocusing of L-FDH; type: physicochemical, Pseudomonas sp. No. 1143
[4] = biological target: T1, L-fucose dehydrogenase (L-FDH); assay: Optimum pH and temperature, pH stability and thermal stability of L-FDH; type: biochemical, Pseudomonas sp. No. 1143
Method: By heat treatment at 30° C. for 60 minutes, the enzyme is stable at a pH value of 8.0 to 10.5 but is unstable at a pH value below 6.0.
as §1

[5] = metal salts and inhibitors, 2 mM

Molecule: O=C(O)CN(CCN(CC(=O)O)CC(=O)O)CC(=O)O [EDTA]
- inhibition and activation of enzyme activity [1]: not observed

Molecule: O=C[C@@H](O)[C@H](O)[C@H](O)CO [D-arabinose]
- specificity of the enzyme to substrate sugar (relative activity) [2]: 1%

Molecule: O=S(=O)([O-])[O-].[Ni+2] [NiSO4]
- inhibition and activation of enzyme activity [1, 5]: not observed

Molecule: [N-]=[N+]=[N-].[Na+] [NaN3]
- inhibition and activation of enzyme activity [1, 5]: not observed

Molecule: c1ccc(-c2ccccn2)nc1 [α,α'-dipyridyl]
- inhibition and activation of enzyme activity [1, 5]: not observed

Molecule: NC(=O)CI [Iodoacetamide]
- Residual Activity (%) [1]: 91%

Molecule: NC(=O)c1ccc[n+]([C@@H]2O[C@H](COP(=O)([O-])OP(=O)(O)OC[C@H]3O[C@@H](n4cnc5c(N)ncnc54)[C@H](OP(=O)(O)O)[C@@H]3O)[C@@H](O)[C@H]2O)c1 [NADP^+, oxidized nicotinamide adenine dinucleotide phosphate]
- coenzyme requirement (relative activity) [2]: 100%

Molecule: L-fucose dehydrogenase [L-FDH]
- isoelectric point [3]: 5.2
- pH at which the enzyme is unstable ([4]; heat treatment at 30° C. for 60 minutes): below 6.0
- temperature up to which the enzyme is stable ([4]; heat treatment for 10 minutes, FIG. 4): up to 40 °C

Molecule: O=S(=O)([O-])[O-].[Zn+2] [ZnSO4]
- Residual Activity (%) [1]: 81%

Molecule: O=S(=O)([O-])[O-].[Cd+2] [CdSO4]
- Residual Activity (%) [1]: 2%

Molecule: O=C[C@@H](O)[C@H](O)[C@H](O)[C@@H](O)CO [L-galactose]
- specificity of the enzyme to substrate sugar (relative activity) [2]: 96%

Molecule: [Ca+2].[Cl-].[Cl-] [CaCl2]
- inhibition and activation of enzyme activity [1, 5]: not observed

Molecule: C[C@H](O)[C@@H](O)[C@@H](O)[C@H](O)C=O [L-fucose]
- specificity of the enzyme to substrate sugar (relative activity) [2]: 100%

Molecule: O=C(O)c1cc[c]([Hg][Cl])cc1 [PCMB]
- Residual Activity (%) [1]: 18%

- inhibition and activation of enzyme activity [1, 5]: not observed
Molecule: c1cnc2c(c1)ccc1cccnc12 [o-phenanthroline]

Molecule: NC(=O)c1ccc[n+]([C@@H]2O[C@H](COP(=O)([O-])OP(=O)(O)OC[C@H]3O[C@@H](n4cnc5c(N)ncnc54)[C@H](O)[C@@H]3O)[C@@H](O)[C@H]2O)c1 [NAD^+, nicotinamide adenine dinucleotide]
- coenzyme requirement (relative activity) [2]: 1%

Molecule: O=S(=O)([O-])[O-].[Mg+2] [MgSO4]
- inhibition and activation of enzyme activity [1, 5]: not observed

Molecule: [Cl][Hg][Cl] [HgCl2]
- Residual Activity (%) [1]: 2%

Molecule: O=S(=O)([O-])[O-].[Cu+2] [CuSO4]
- inhibition and activation of enzyme activity [1, 5]: not observed
